The values below come from PubChem BioAssay AID1259408 (Genetic Toxicology Data Bank (GENE-TOX), 2018).

The source made the active and inactive calls. No rule for the calls is given here.

In this series the test system is GENE-TOX genotoxicity assays, various organisms and cells. In words: GENE-TOX mutagenicity studies. The note with it: for call: Assay Type: In vivo carcinogenicity studies.
[1] abbreviates: Species/Cell Type: Fischer rat embryo (RLV/1706) cells, Assay Type: Cell transformation, viral enhanced, Assay Code: CTR-, Evaluation Type: Evaluation A (Pre-1980).
[2] abbreviates: Species/Cell Type: Vicia faba, Assay Type: Chromosome aberrations, Assay Code: VIC+, Evaluation Type: Evaluation A (Pre-1980).
Setting [3] is: Species/Cell Type: Salmonella typhimurium (one or more of the five standard strains: TA98, TA100, TA1535, TA1537, and TA1538), Assay Type: Histidine reverse gene mutation, Ames assay, Assay Code: SAL+, Evaluation Type: Evaluation A (Pre-1980).
The mark [4] stands for this setting: Species/Cell Type: Nonhuman, Assay Code: CCG+, Evaluation Type: Evaluation A (Pre-1980).
The mark [5] stands for this setting: Species/Cell Type: Saccharomyces cerevisiae, Assay Type: Mitotic recombination or gene conversion, Assay Code: YEC-, Evaluation Type: Evaluation A (Pre-1980).
The mark [6] stands for this setting: Species/Cell Type: Saccharomyces cerevisiae, Assay Type: Mitotic recombination or gene conversion, Assay Code: YEH-, Evaluation Type: Evaluation A (Pre-1980).
[7] abbreviates: Species/Cell Type: Neurospora crassa, Assay Type: Reverse gene mutation, Assay Code: NER+, Evaluation Type: Evaluation A (Pre-1980).
The mark [8] stands for this setting: Species/Cell Type: Escherichia coli polA (W3119 vs P3478), Assay Type: Rec-assay, DNA effects (bacterial DNA repair), Assay Code: RE1T, Evaluation Type: Evaluation A (Pre-1980).
Setting [9] is: Species/Cell Type: Nonhuman, Assay Code: CCGT, Evaluation Type: Evaluation A (Pre-1980).

Turning to `COC1=C(N)C(=O)c2nc(-c3nc(C(=O)O)c(C)c(-c4ccc(OC)c(OC)c4O)c3N)ccc2C1=O`, the mutagenic call by setting is: under setting [1], “inactive; negative”; (Species/Cell Type: Human cell culture, Assay Type: Chromosome aberrations in vitro, Assay Code: CYZ+, Evaluation Type: Evaluation A (Pre-1980)) “active; positive”; (Species/Cell Type: Human diploid fibroblasts, Assay Type: Unscheduled DNA synthesis (UDS) in vitro, DNA effects, Assay Code: UDH+, Evaluation Type: Evaluation A (Pre-1980)) “active; positive”; (Species/Cell Type: Mammalian oocytes or early embryo, Assay Type: Chromosome aberrations in vivo, Assay Code: CYO+, Evaluation Type: Evaluation A (Pre-1980)) “active; positive”; (Species/Cell Type: Nonhuman, Assay Type: Sister-chromatid exchange (SCE) in vivo, Assay Code: SC3+, Evaluation Type: Evaluation A (Pre-1980)) “active; positive”; under setting [2], “active; positive”.
With `OCCS`, the mutagenic call (Species/Cell Type: Nonhuman, Assay Type: Sister-chromatid exchange (SCE) in vitro, Assay Code: SC2+D, Dose Response: With dose response, Evaluation Type: Evaluation B (Post-1980)) is “active; positive”.
Turning to `C=C(Cl)CCl`, the mutagenic call under setting [3] is “active; positive”.
With `COc1ccc([N+](=O)[O-])cc1N`, the call under setting [4] was “active; positive”. The mutagenic call under setting [3] was “active; positive”.
In the case of `O=C1C=C(N2CC2)c2ccccc2C1=O`, the mutagenic call (Species/Cell Type: Drosophila melanogaster, Assay Type: Sex-linked recessive lethal gene mutation, Assay Code: SRL+, Evaluation Type: Evaluation A (Pre-1980)) is “active; positive”.
Regarding `Clc1ccc(Oc2c(Cl)cc(Cl)cc2Cl)cc1`, the mutagenic call (Species/Cell Type: Saccharomyces cerevisiae, Assay Type: Forward gene mutation, Assay Code: YEF-, Evaluation Type: Evaluation A (Pre-1980)) is “inactive; negative”; the mutagenic call under setting [5] is “inactive; negative”; the mutagenic call under setting [6] was “inactive; negative”.
Take `c1cc2ccc3ccc(C4CO4)c4ccc(c1)c2c34` (configuration not stated): under setting [3], the mutagenic call was “active; positive”.
For `CNO`, the mutagenic call under setting [7] was “active; positive”.
As for `c1ccc2c(c1)c1cccc3ccc4cccc2c4c31`, the mutagenic call was “inactive; negative” (Species/Cell Type: Chinese hamster lung (V79) cells, Assay Type: Forward gene mutation at the HPRT or ouabain locus, Assay Code: V79-, Evaluation Type: Evaluation A (Pre-1980)); “inactive; negative” (Species/Cell Type: Escherichia coli polA (W3110 vs P3478), Assay Type: Rec-assay, DNA effects (bacterial DNA repair), Assay Code: RE2-, Evaluation Type: Evaluation A (Pre-1980)); “no conclusion” under setting [8]; “inactive; negative” under setting [1]; “active; positive” (Species/Cell Type: Human diploid fibroblasts, Assay Type: Unscheduled DNA synthesis (UDS) in vitro, DNA effects, Assay Code: UDH+*, Activation: With metabolic activation, Evaluation Type: Evaluation A (Pre-1980)); “inactive; negative” (Species/Cell Type: Mouse (BALB/c-3T3) cells, Assay Type: Cell transformation, Assay Code: CTB-, Evaluation Type: Evaluation A (Pre-1980)). Besides, the mutagenic call is, setting by setting: (Species/Cell Type: Mouse lymphoma (L5178Y) cells, Assay Type: Forward gene mutation at the thymidine kinase (TK) locus, chromosome aberrations, Assay Code: L51T, Evaluation Type: Evaluation A (Pre-1980)) “no conclusion”; (Species/Cell Type: Nonhuman, Assay Type: Sister-chromatid exchange (SCE) in vitro, Assay Code: SC2T, Evaluation Type: Evaluation B (Post-1980)) “no conclusion”; (Species/Cell Type: Nonhuman, Assay Type: Sister-chromatid exchange (SCE) in vivo, Assay Code: SC3+, Evaluation Type: Evaluation B (Post-1980)) “active; positive”; (Species/Cell Type: Nonhuman, Assay Type: Sister-chromatid exchange (SCE) in vivo, Assay Code: SC3T, Evaluation Type: Evaluation A (Pre-1980)) “no conclusion”; under setting [6], “inactive; negative”; (Species/Cell Type: Salmonella typhimurium (one or more of the five standard strains: TA98, TA100, TA1535, TA1537, and TA1538), Assay Type: Histidine reverse gene mutation, Ames assay, Assay Code: SAL+*, Activation: With metabolic activation, Evaluation Type: Evaluation A (Pre-1980)) “active; positive”. For the setting “Species/Cell Type: Syrian hamster embryo (SHE) cells, Assay Type: Cell transformation, clonal assay, Assay Code: CTC-, Evaluation Type: Evaluation A (Pre-1980)”, the mutagenic call is “inactive; negative”. For the same molecule, the call under setting [9] is listed as “no conclusion”.
As for `C[C@H](CCC(=O)O)[C@H]1CC[C@H]2[C@@H]3CC[C@@H]4C[C@H](O)CC[C@]4(C)[C@H]3CC[C@]12C`, the mutagenic call is, setting by setting: (Species/Cell Type: Fischer rat embryo (RLV/1706) cells, Assay Type: Cell transformation, viral enhanced, Assay Code: CTR+, Evaluation Type: Evaluation A (Pre-1980)) “active; positive”; (Species/Cell Type: Syrian hamster embryo (SHE) cells, Assay Type: Cell transformation, clonal assay, Assay Code: CTCT, Evaluation Type: Evaluation A (Pre-1980)) “no conclusion”.
For `NC1CCCCC1`, the mutagenic call was “no conclusion” (Species/Cell Type: Drosophila melanogaster, Assay Type: Aneuploidy, whole sex chromosome loss, chromosome aberrations, Assay Code: DACT, Evaluation Type: Evaluation A (Pre-1980)); “inactive; negative” (Species/Cell Type: Drosophila melanogaster, Assay Type: Sex-linked recessive lethal gene mutation, Assay Code: SRL-, Evaluation Type: Evaluation A (Pre-1980)); “inactive; negative” (Species/Cell Type: Drosophila melanogaster, Sex: Male, Assay Type: Heritable translocation test, chromosome aberrations, Assay Code: DHT-, Evaluation Type: Evaluation A (Pre-1980)); “no conclusion” under setting [8]; “inactive; negative” (Species/Cell Type: Human lymphocytes or leukocytes, Assay Type: Chromosome aberrations in vitro, Assay Code: CY7-, Evaluation Type: Evaluation A (Pre-1980)); “active; positive” (Species/Cell Type: Mammalian germ cells, Sex: Male, Assay Type: Chromosome aberrations in vivo, Assay Code: CY9+, Evaluation Type: Evaluation A (Pre-1980)). The mutagenic call is, setting by setting: (Species/Cell Type: Nonhuman bone marrow, Assay Type: Chromosome aberrations, in vivo, Assay Code: CY#-, Evaluation Type: Evaluation A (Pre-1980)) “inactive; negative”; (Species/Cell Type: Nonhuman, Assay Type: Chromosome aberrations in vitro, Assay Code: CY&+D, Dose Response: With dose response, Evaluation Type: Evaluation A (Pre-1980)) “active; positive”; (Species/Cell Type: Rat, Sex: Male, Assay Type: Sperm morphology, Assay Code: SPA+, Evaluation Type: Evaluation A (Pre-1980)) “active; positive”; (Species/Cell Type: Rodents, Sex: Male, Assay Type: Dominant lethal test, Assay Code: DLT-, Evaluation Type: Evaluation A (Pre-1980)) “inactive; negative”; (Species/Cell Type: Rodents, Sex: Male, Assay Type: Dominant lethal test, Assay Code: DLTT, Evaluation Type: Evaluation A (Pre-1980)) “no conclusion”; (Species/Cell Type: Salmonella typhimurium, Serratia marcesens, Assay Type: Forward and reverse gene mutation, host-mediated assay, Assay Code: HM2T, Evaluation Type: Evaluation A (Pre-1980)) “no conclusion”. Besides, under “Species/Cell Type: Syrian hamster embryo (SA7/SHE) cells, Assay Type: Cell transformation, viral enhanced, Assay Code: CT7+, Evaluation Type: Evaluation A (Pre-1980)”, the mutagenic call is “active; positive”. Under setting [9], the call is on record as “no conclusion”.
For the molecule `CNc1ccc(O)cc1`, the mutagenic call (Species/Cell Type: Allium cepa, Assay Type: Chromosome aberrations, Assay Code: ALCT, Evaluation Type: Evaluation A (Pre-1980)) is recorded as “no conclusion” and the mutagenic call (Species/Cell Type: Neurospora crassa, Assay Type: Aneuploidy, chromosome aberrations, Assay Code: NEN-, Evaluation Type: Evaluation A (Pre-1980)) was “inactive; negative”.
As to `COC(=O)Nc1cccc(OC(=O)Nc2cccc(C)c2)c1`, the mutagenic call is “active; positive” (Species/Cell Type: Aspergillus nidulans, Assay Type: Aneuploidy, chromosome aberrations, Assay Code: ASN+, Evaluation Type: Evaluation A (Pre-1980)) and “inactive; negative” under setting [5].
Turning to `CC(=O)Nc1ccccc1O`, under “Species/Cell Type: Human, Assay Type: Sister-chromatid exchange (SCE) in vitro, Assay Code: SC1T, Evaluation Type: Evaluation B (Post-1980)”, the mutagenic call is “no conclusion”.
Consider `CC(C)(C)OO`, for which the mutagenic call by setting is: under setting [7], “active; positive”; (Species/Cell Type: Saccharomyces cerevisiae, Assay Type: Mitotic recombination or gene conversion, Assay Code: YEC+, Evaluation Type: Evaluation A (Pre-1980)) “active; positive”; under setting [2], “active; positive”.
For the molecule `CC(C)=CC1C(C(=O)OCc2cccc(Oc3ccccc3)c2)C1(C)C` (configuration not stated), the mutagenic call runs as follows: (Species/Cell Type: Human diploid fibroblasts, Assay Type: Unscheduled DNA synthesis (UDS) in vitro, DNA effects, Assay Code: UDH-, Evaluation Type: Evaluation A (Pre-1980)) “inactive; negative”; under setting [6], “inactive; negative”.
`CNc1ccc(C(=C2C=CC(=[N+](C)C)C=C2)c2ccc(N(C)C)cc2)cc1`: the mutagenic call (Species/Cell Type: Saccharomyces cerevisiae, Assay Type: Reverse gene mutation, Assay Code: YER-, Evaluation Type: Evaluation A (Pre-1980)) was “inactive; negative”.
Regarding `O=CNc1nc(-c2ccc([N+](=O)[O-])[nH]2)cs1`, the mutagenic call (Species/Cell Type: Salmonella typhimurium (one or more of the five standard strains: TA98, TA100, TA1535, TA1537, and TA1538), Assay Type: Histidine reverse gene mutation, Ames assay, Assay Code: SALT, Evaluation Type: Evaluation A (Pre-1980)) is “no conclusion”.
As to `CN(CC(=O)O)N=O`, under setting [4], the call was “active; positive”. Also, the mutagenic call (Species/Cell Type: Salmonella typhimurium, Assay Type: Forward and reverse gene mutation, host-mediated assay, Assay Code: HMA-, Evaluation Type: Evaluation A (Pre-1980)) is “inactive; negative”.
In the case of `NC1=NC(=O)NC(=O)C1`, the mutagenic call under setting [2] was “active; positive”.
For the molecule `[Cl][Pb][Cl]`, under “Species/Cell Type: Bacillus subtilis (H17 vs M45), Assay Type: Rec-assay, spot test, DNA effects (bacterial DNA repair), Assay Code: REW-, Evaluation Type: Evaluation A (Pre-1980)”, the mutagenic call is “inactive; negative”.
